We go through 29 compounds from ChEMBL document CHEMBL1155042, “Carbamates with differential mechanism of inhibition toward acetylcholinesterase and butyrylcholinesterase” (J Med Chem, 2008).

Usually Ki stands for a dissociation constant, usually derived from enzyme kinetics or from competition with a known ligand.

The target of assay [1] is T1, Cholinesterase (Homo sapiens, UniProt P06276). Kind of assay: Inhibition of human serum BchE by Ellman's assay. (In general: In Ellman's method for cholinesterases, released thiocholine reacts with DTNB.)
T1 sequence (P06276 whole entry): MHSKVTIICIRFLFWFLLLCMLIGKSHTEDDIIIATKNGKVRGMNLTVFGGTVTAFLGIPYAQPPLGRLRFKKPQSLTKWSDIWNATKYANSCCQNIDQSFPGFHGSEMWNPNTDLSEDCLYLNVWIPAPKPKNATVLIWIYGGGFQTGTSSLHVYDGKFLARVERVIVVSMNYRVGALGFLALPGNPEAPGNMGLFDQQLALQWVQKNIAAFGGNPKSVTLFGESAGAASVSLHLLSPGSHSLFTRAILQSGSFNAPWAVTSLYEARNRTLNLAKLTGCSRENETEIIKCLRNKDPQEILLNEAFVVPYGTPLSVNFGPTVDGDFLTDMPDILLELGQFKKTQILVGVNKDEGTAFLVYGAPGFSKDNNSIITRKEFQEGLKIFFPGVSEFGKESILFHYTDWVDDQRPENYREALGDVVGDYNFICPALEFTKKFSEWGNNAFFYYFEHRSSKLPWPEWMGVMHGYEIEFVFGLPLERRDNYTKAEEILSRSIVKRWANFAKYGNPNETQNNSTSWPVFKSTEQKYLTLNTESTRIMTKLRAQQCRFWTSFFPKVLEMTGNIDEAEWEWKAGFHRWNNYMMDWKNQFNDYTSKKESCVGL
Assay [2] has as its target Acetylcholinesterase (Homo sapiens) (UniProt P22303).
Description: Inhibition of human recombinant AchE by Ellman's assay
Assay [3] has as its target T1, Cholinesterase. Kind of assay: Inhibition of human serum BchE at 23.6 uM by Ellman's assay.
Assay [4] concerns the target T1, Cholinesterase. Kind of assay: Deactivation of human wild type recombinant BchE assessed as residual enzyme activity at 2.1 uM after 5 mins.
Assay [5] concerns the target T1, Cholinesterase. Description: Deactivation of human wild type recombinant BchE assessed as residual enzyme activity at 2.1 uM after 10 mins.
For assay [6], the target named is T1, Cholinesterase. Kind of assay: Deactivation of human wild type recombinant BchE assessed as residual enzyme activity at 2.1 uM after 15 mins.
In assay [7] the target is T1, Cholinesterase. Kind of assay: Deactivation of human BchE D70G mutant assessed as residual enzyme activity at 2.1 uM after 5 mins.
The target of assay [8] is T1, Cholinesterase. Kind of assay: Deactivation of human BchE D70G mutant assessed as residual enzyme activity at 2.1 uM after 10 mins.
Assay [9] deals with T1, Cholinesterase. Description: Deactivation of human BchE D70G mutant assessed as residual enzyme activity at 2.1 uM after 15 mins.
The target of assay [10] is T1, Cholinesterase. Description: Deactivation of human BchE A539T mutant assessed as residual enzyme activity at 2.1 uM after 5 mins.
Assay [11] has as its target T1, Cholinesterase. Kind of assay: Deactivation of human BchE A539T mutant assessed as residual enzyme activity at 2.1 uM after 10 mins.
The target in assay [12] is T1, Cholinesterase. Kind of assay: Deactivation of human BchE A539T mutant assessed as residual enzyme activity at 2.1 uM after 15 mins.
In assay [13] the target is T1, Cholinesterase. Description: Deactivation of human BchE Y332A mutant assessed as residual enzyme activity at 2.1 uM after 5 mins.
For assay [14], the target named is T1, Cholinesterase. Description: Deactivation of human BchE Y332A mutant assessed as residual enzyme activity at 2.1 uM after 10 mins.
Assay [15] has as its target T1, Cholinesterase. Kind of assay: Deactivation of human BchE Y332A mutant assessed as residual enzyme activity at 2.1 uM after 15 mins.
For assay [16], the target named is T1, Cholinesterase. Description: Deactivation of human BchE A328Y mutant assessed as residual enzyme activity at 2.1 uM after 5 mins.
Assay [17] concerns the target T1, Cholinesterase. Kind of assay: Deactivation of human BchE A328Y mutant assessed as residual enzyme activity at 2.1 uM after 10 mins.
The target of assay [18] is T1, Cholinesterase. Description: Deactivation of human BchE A328Y mutant assessed as residual enzyme activity at 2.1 uM after 15 mins.
Assay [19] deals with T1, Cholinesterase. Kind of assay: Deactivation of human BchE A328F mutant assessed as residual enzyme activity at 2.1 uM after 5 mins.
Assay [20] deals with T1, Cholinesterase. Kind of assay: Deactivation of human BchE A328F mutant assessed as residual enzyme activity at 2.1 uM after 10 mins.
For assay [21], the target named is T1, Cholinesterase. Description: Deactivation of human BchE A328F mutant assessed as residual enzyme activity at 2.1 uM after 15 mins.
The target of assay [22] is T1, Cholinesterase. Kind of assay: Deactivation of human BchE A328W mutant assessed as residual enzyme activity at 2.1 uM after 5 mins.
The target in assay [23] is T1, Cholinesterase. Kind of assay: Deactivation of human BchE A328W mutant assessed as residual enzyme activity at 2.1 uM after 10 mins.
The target in assay [24] is T1, Cholinesterase. Description: Deactivation of human BchE A328W mutant assessed as residual enzyme activity at 2.1 uM after 15 mins.
The target in assay [25] is T1, Cholinesterase. Description: Deactivation of human BchE F329S mutant assessed as residual enzyme activity at 2.1 uM after 5 mins.
The target of assay [26] is T1, Cholinesterase. Description: Deactivation of human BchE F329S mutant assessed as residual enzyme activity at 2.1 uM after 10 mins.
For assay [27], the target named is T1, Cholinesterase. Kind of assay: Deactivation of human BchE F329S mutant assessed as residual enzyme activity at 2.1 uM after 15 mins.
In assay [28] the target is T1, Cholinesterase. Description: Deactivation of human BchE F329A mutant assessed as residual enzyme activity at 2.1 uM after 5 mins.
For assay [29], the target named is T1, Cholinesterase. Kind of assay: Deactivation of human BchE F329A mutant assessed as residual enzyme activity at 2.1 uM after 10 mins.
In assay [30] the target is T1, Cholinesterase. Kind of assay: Deactivation of human BchE F329A mutant assessed as residual enzyme activity at 2.1 uM after 15 mins.
Assay [31] addresses T1, Cholinesterase. Kind of assay: Inhibition of human serum BchE at 73.3 uM by Ellman's assay.

Molecules are shown by their SMILES. Calls of active or inactive are those of the source. The rule behind the calls is not given here.

Chain of Acetylcholinesterase (Homo sapiens) (P22303 whole entry): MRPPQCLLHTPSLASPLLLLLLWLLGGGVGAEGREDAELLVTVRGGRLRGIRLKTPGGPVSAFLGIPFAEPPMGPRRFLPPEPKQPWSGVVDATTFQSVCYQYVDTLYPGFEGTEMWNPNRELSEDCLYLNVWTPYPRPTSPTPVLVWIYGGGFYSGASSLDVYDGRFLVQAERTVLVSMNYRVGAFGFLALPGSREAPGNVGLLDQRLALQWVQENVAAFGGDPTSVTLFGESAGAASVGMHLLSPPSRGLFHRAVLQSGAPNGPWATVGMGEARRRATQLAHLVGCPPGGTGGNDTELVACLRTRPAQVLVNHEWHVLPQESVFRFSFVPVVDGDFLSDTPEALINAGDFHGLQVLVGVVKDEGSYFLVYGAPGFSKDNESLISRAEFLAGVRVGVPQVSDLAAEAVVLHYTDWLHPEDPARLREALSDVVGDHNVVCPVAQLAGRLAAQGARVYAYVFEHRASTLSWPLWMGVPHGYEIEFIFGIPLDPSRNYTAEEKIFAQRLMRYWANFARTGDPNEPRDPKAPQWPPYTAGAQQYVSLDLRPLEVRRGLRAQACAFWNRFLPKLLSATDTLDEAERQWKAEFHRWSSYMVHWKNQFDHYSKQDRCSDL

`CCN(CC)CCOC(=O)N1c2ccccc2Sc2ccccc21`: the Ki at Cholinesterase [1] is 0.61 µM. This compound also had a Ka in [2] of 0.24 ×10³ /M/min.

At Cholinesterase [1], `Cc1cccc(OC(=O)N2c3ccccc3Sc3ccccc32)c1` came in with a Ki of 1.69 µM. In assay [2], this compound returned a Ka of 7.49 ×10³ /M/min.

As for `CCCCOC(=O)N1c2ccccc2Sc2ccccc21`, the Ki on Cholinesterase [1] worked out at 13.4 µM. The Ka in assay [2] was 0.135 ×10³ /M/min.

With `Cc1ccccc1OC(=O)N1c2ccccc2Sc2ccccc21`, the Ki at Cholinesterase [1] came to 0.39 µM. In assay [2], this compound gave a Ka of 547 ×10³ /M/min.

Regarding `COc1ccccc1OC(=O)N1c2ccccc2Sc2ccccc21`, at Cholinesterase [1], the affinity corresponds to a Ki of 0.34 µM. Besides, the Ka in assay [2] was 5.99 ×10³ /M/min.

`CCOC(=O)N1c2ccccc2Sc2ccccc21` had a Ki on Cholinesterase [1] of 23.4 µM. Moreover, the Ka in assay [2] came out at 0.193 ×10³ /M/min.

For the compound `CN(C)c1cccc(OC(=O)N2c3ccccc3Sc3ccccc32)c1`, at Cholinesterase [1], the Ki was 1.91 µM. In [2], this compound had a Ka of 19200 ×10³ /M/min.

On to `O=C(Oc1ccc(-c2ccccc2)cc1)N1c2ccccc2Sc2ccccc21`, for which the result at Cholinesterase [3] was inactive. Further, the Activity on Cholinesterase [4] worked out at 100%; at Cholinesterase [5], 100%; on Cholinesterase [6] it was 100%; at Cholinesterase [7], 99.5%; on Cholinesterase [8] it was 90%; at Cholinesterase [9], 76%. Further, the Activity turned out to be 99% at Cholinesterase [10]; 94% at Cholinesterase [11]; 93% at Cholinesterase [12]; 58% on Cholinesterase [13]; 87% at Cholinesterase [14]; 85% on Cholinesterase [15]. Further, the Activity at Cholinesterase [16] was found to be 85%; at Cholinesterase [17], 67%; at Cholinesterase [18] it was 63%; at Cholinesterase [19] it was 88%; at Cholinesterase [20], 75%; at Cholinesterase [21], 59%. In addition, the Activity is 74% on Cholinesterase [22]; 57% on Cholinesterase [23]; 35% at Cholinesterase [24]; 51% at Cholinesterase [25]; 15% on Cholinesterase [26]; 11% at Cholinesterase [27]. Further, the Activity on Cholinesterase [28] was 46%; on Cholinesterase [29], 26%; at Cholinesterase [30] it was 12%. Besides, the Ka in [2] is 910 ×10³ /M/min.

For the compound `CC(C)(C)OC(=O)N1c2ccccc2Sc2ccccc21`, affinity on Cholinesterase [1] was put at a Ki of 4.3 µM. This compound also came in with a Ka in [2] of 0.219 ×10³ /M/min.

In turn, `O=C(OC1CCCC1)N1c2ccccc2Sc2ccccc21` showed a Ki at Cholinesterase [1] of 3.19 µM. Also, in assay [2], the Ka was 0.492 ×10³ /M/min.

For the compound `O=C(OCCN1CCCCC1)N1c2ccccc2Sc2ccccc21`, the affinity at Cholinesterase [1], expressed as Ki, was 3.2 µM. Besides, the Ka in assay [2] turned out to be 3 ×10³ /M/min.

`CC(C)OC(=O)N1c2ccccc2Sc2ccccc21` returned a Ki on Cholinesterase [1] of 18.1 µM. Further, the Ka in assay [2] worked out at 1.8 ×10³ /M/min.

In the case of `CN(C)CCOC(=O)N1c2ccccc2Sc2ccccc21`, the Ki at Cholinesterase [1] was determined as 2.45 µM. The Ka in assay [2] was 0.546 ×10³ /M/min.

In turn, `CCCOC(=O)N1c2ccccc2Sc2ccccc21` returned a Ki on Cholinesterase [1] of 260 µM. For the same compound, in assay [2], the Ka came to 0.219 ×10³ /M/min.

Turning to `COc1ccc(OC(=O)N2c3ccccc3Sc3ccccc32)cc1`, the Ki on Cholinesterase [1] is 2.26 µM. The Ka in assay [2] came to 1.42 ×10³ /M/min.

As to `O=C(Oc1cccc2ccccc12)N1c2ccccc2Sc2ccccc21`, at Cholinesterase [1], the Ki came to 0.036 µM. The compound further yielded a Ka in [2] of 1650 ×10³ /M/min.

Compound `COC(=O)N1c2ccccc2Sc2ccccc21` gave a Ki on Cholinesterase [1] of 10.2 µM. In assay [2], this compound came in with a Ka of 0.426 ×10³ /M/min.

Take `O=C(OCCN1CCOCC1)N1c2ccccc2Sc2ccccc21`: on Cholinesterase [1], the Ki turned out to be 2.4 µM. In addition, the Ka in assay [2] is 0.12 ×10³ /M/min.

For the compound `O=C(Oc1cccc(Cl)c1)N1c2ccccc2Sc2ccccc21`, the Ki on Cholinesterase [1] worked out at 0.57 µM. The same compound yielded a Ka in assay [2] of 3.21 ×10³ /M/min.

On Cholinesterase [1], `CC(C)(C)c1ccccc1OC(=O)N1c2ccccc2Sc2ccccc21` showed a Ki of 0.12 µM. This compound gave a Ka in assay [2] of 0.011 ×10³ /M/min.

For the compound `O=C(OCCN1CCCC1)N1c2ccccc2Sc2ccccc21`, the affinity at Cholinesterase [1], expressed as Ki, was 0.65 µM. This compound yielded a Ka in assay [2] of 46 ×10³ /M/min.

`CCN(CC)CCCOC(=O)N1c2ccccc2Sc2ccccc21` yielded a Ki at Cholinesterase [1] of 0.74 µM. Also, the Ka in assay [2] was found to be 0.21 ×10³ /M/min.

For the compound `CC(C)(C)c1ccc(OC(=O)N2c3ccccc3Sc3ccccc32)cc1`, the outcome on Cholinesterase [31] was inactive. The compound also had a Ka in assay [2] of 0.63 ×10³ /M/min.

For the compound `O=C(Oc1ccccc1)N1c2ccccc2Sc2ccccc21`, affinity at Cholinesterase [1] was put at a Ki of 0.57 µM. The compound further registered a Ka in [2] of 46 ×10³ /M/min.

As to `O=C(Oc1ccc(Cl)cc1)N1c2ccccc2Sc2ccccc21`, the Ki at Cholinesterase [1] came out at 10.5 µM. Further, in assay [2], the Ka was found to be 7.25 ×10³ /M/min.

Regarding `COc1cccc(OC(=O)N2c3ccccc3Sc3ccccc32)c1`, at Cholinesterase [1], the Ki was found to be 0.71 µM. This compound also showed a Ka in [2] of 89.4 ×10³ /M/min.

Regarding `O=C(Oc1ccccc1Cl)N1c2ccccc2Sc2ccccc21`, affinity at Cholinesterase [1] was put at a Ki of 45.4 µM. This compound also displayed a Ka in assay [2] of 18.7 ×10³ /M/min.

On to `O=C(Oc1ccc2ccccc2c1)N1c2ccccc2Sc2ccccc21`, for which the Ki at Cholinesterase [1] came to 0.12 µM. The Ka in assay [2] was found to be 11.2 ×10³ /M/min.

On Cholinesterase [1], `Cc1ccc(OC(=O)N2c3ccccc3Sc3ccccc32)cc1` gave a Ki of 2.85 µM. For the same compound, the Ka in assay [2] is 92.6 ×10³ /M/min.
